What was measured:
ΔF508-CFTR [1] = target: T1, ΔF508-CFTR (Homo sapiens, UniProt P13569, DEL508-508); test: CFTR cell surface levels using HRP-tagged ΔF508-CFTR expressing CFBE cells, in the presence of a co-corrector; assay type: cell-based
T1 construct: host or cells: CFBE41o-, doxycycline-inducible
Procedure, shortened: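 Cells were seeded with 0.5 μg/mL doxycycline and held 68 h at 37 °C. Test compounds plus 3 μM co-corrector (final 0.1% DMSO) were then added for 20 h at 33 °C. Washed cells received HRP substrate, and luminescence was normalized between DMSO and 3 μM co-corrector controls.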

ΔF508-CFTR [2] = target: T1, ΔF508-CFTR; test: CFTR cell surface levels using HRP-tagged ΔF508-CFTR expressing CFBE cells, intrinsic corrector capacity; assay type: cell-based
Procedure, shortened: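 Here the cells express ΔF508-CFTR with horseradish peroxidase inserted in extracellular loop 4, so only rescued channel at the surface gives luminescent signal. Compounds act on their own, 20 h at the reduced temperature of 33 °C; values are percent activity relative to DMSO and a 3 μM corrector.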

[3] = HRP-tagged ΔF508-CFTR expressing CFBE cells, in the presence of 3 μM co-corrector
[4] = HRP-tagged ΔF508-CFTR expressing CFBE cells, in the presence of 3 μM co-corrector, read-out: EC50
[5] = HRP-tagged ΔF508-CFTR CFBE41o- cells, compounds alone (intrinsic corrector capacity), 20 hours at 33° C., positive control 3 μM corrector
[6] = HRP-tagged ΔF508-CFTR CFBE41o- cells, compounds alone (intrinsic corrector capacity), 20 hours at 33° C., read-out: EC50
[7] = HRP-tagged ΔF508-CFTR expressing CFBE cells, intrinsic corrector capacity (no co-corrector), 33° C., 20 hours
[8] = HRP-tagged ΔF508-CFTR expressing CFBE cells, intrinsic corrector capacity (no co-corrector), 33° C., 20 hours, read-out: EC50

T1 sequence (P13569 with tags, fused parts or gaps DEL508-508): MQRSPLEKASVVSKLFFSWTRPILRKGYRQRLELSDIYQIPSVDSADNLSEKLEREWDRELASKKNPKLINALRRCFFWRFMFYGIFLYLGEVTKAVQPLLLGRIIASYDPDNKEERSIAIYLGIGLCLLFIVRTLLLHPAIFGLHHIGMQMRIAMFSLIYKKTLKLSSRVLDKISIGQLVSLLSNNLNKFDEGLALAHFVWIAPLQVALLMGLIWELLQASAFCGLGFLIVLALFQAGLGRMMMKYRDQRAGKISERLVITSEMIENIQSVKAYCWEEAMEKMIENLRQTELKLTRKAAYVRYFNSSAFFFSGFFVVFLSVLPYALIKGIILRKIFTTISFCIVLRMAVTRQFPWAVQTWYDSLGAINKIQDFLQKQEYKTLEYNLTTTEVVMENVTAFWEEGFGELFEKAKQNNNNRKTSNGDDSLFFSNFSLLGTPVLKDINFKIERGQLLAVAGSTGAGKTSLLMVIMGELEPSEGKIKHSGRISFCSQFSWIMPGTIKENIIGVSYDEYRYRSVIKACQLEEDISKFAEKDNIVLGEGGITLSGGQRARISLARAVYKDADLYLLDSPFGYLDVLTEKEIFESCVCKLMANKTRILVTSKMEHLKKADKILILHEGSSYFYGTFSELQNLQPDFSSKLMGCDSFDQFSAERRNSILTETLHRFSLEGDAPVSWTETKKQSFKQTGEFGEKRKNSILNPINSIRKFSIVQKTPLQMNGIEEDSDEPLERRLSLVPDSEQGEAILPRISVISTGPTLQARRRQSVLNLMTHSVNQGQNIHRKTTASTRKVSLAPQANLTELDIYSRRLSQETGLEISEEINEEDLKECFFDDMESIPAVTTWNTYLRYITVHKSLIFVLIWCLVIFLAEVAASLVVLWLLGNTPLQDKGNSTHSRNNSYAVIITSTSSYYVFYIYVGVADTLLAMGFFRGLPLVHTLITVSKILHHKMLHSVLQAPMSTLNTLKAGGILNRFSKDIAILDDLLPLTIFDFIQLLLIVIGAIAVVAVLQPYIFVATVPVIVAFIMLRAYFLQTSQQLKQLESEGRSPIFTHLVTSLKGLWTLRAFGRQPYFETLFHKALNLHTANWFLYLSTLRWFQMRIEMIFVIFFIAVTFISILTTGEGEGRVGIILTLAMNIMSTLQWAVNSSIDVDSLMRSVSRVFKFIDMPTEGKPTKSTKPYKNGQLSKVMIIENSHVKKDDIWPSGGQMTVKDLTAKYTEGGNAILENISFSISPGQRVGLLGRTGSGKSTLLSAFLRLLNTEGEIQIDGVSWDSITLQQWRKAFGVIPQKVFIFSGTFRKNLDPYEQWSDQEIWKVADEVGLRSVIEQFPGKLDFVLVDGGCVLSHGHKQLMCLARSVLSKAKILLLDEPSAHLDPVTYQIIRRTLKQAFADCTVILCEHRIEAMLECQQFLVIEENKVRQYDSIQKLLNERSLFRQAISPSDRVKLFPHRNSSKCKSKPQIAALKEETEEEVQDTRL

SMILES | % Activation (ΔF508-CFTR [1]; [3]) [%] | EC50 (ΔF508-CFTR [1]; [4]) [nM] | % Activation (ΔF508-CFTR [2]; [5]) [%] | EC50 (ΔF508-CFTR [2]; [6]) [nM] | % Activation (ΔF508-CFTR [2]; [7]) [%] | EC50 (ΔF508-CFTR [2]; [8]) [nM] | EC50 (ΔF508-CFTR [1]) [nM] | EC50 (ΔF508-CFTR [2]) [nM]
COCC1CCN(c2cc(C(=O)O)nc3c2c(C)nn3-c2ccccc2)CC1 [compound 291, 4-[4-(methoxymethyl)piperidin-1-yl]-3-methyl-1-phenyl-1H-pyrazolo[3,4-b]pyridine-6-carboxylic acid] | 349.55 | 1400 | 168.85 | 1710 |  |  |  | 
CC(C)c1nn(C2CCCCC2)c2nc(C(=O)O)cc(-c3ccc(N4CCC(C#N)CC4)cc3)c12 [compound 185, 4-[4-(4-cyanopiperidin-1-yl)phenyl]-1-cyclohexyl-3-(propan-2-yl)-1H-pyrazolo[3,4-b]pyridine-6-carboxylic acid] | 478.6 | 520 | 237.8 | 1110 |  |  |  | 
Cc1nn(-c2ccccc2)c2nc(C(=O)O)cc(OCCC3CC(F)(F)C3)c12 [compound 347, 4-[2-(3,3-difluorocyclobutyl)ethoxy]-3-methyl-1-phenyl-1H-pyrazolo[3,4-b]pyridine-6-carboxylic acid] | 259.55 | 1410 | 79.835 | 1410 |  |  |  | 
O=C(O)c1cc(N2CCN(C3CCC3)CC2)c2c(C3CCC3)nn(-c3ccccc3)c2n1 [compound 450, 3-cyclobutyl-4-(4-cyclobutylpiperazin-1-yl)-1-phenyl-1H-pyrazolo[3,4-b]pyridine-6-carboxylic acid] | 377.1 | 456 |  |  | 165.85 | 1090 |  | 
Cc1nn(-c2ccccc2)c2nc(C(=O)O)cc(C3CCN(CC#N)CC3)c12 [compound 139, 4-[1-(cyanomethyl)piperidin-4-yl]-3-methyl-1-phenyl-1H-pyrazolo[3,4-b]pyridine-6-carboxylic acid] | 104.1 | > 10000 | −0.041 | > 10000 |  |  |  | 
CC(C)c1nn(-c2cccc(N(C)C)c2)c2nc(C(=O)O)cc(-c3ccc(N4CCC(C#N)CC4)cc3)c12 [compound 176] | 619.28 | 448 | 382.28 | 528 |  |  |  | 
CC(=O)N1CCN(c2cc(C(=O)O)nc3c2c(C)nn3-c2ccccc2)CC1 [compound 132, 4-(4-acetylpiperazin-1-yl)-3-methyl-1-phenyl-1H-pyrazolo[3,4-b]pyridine-6-carboxylic acid] | 156.4 | 3340 | 13.45 | > 10000 |  |  |  | 
CC(C)c1nn(C2CCCCC2)c2nc(C(=O)O)cc(-c3ccc(N4CCC(C#N)CC4)nc3)c12 [compound 180, 4-[6-(4-cyanopiperidin-1-yl)pyridin-3-yl]-1-cyclohexyl-3-(propan-2-yl)-1H-pyrazolo[3,4-b]pyridine-6-carboxylic acid] | 524.85 | 687 | 249.55 | 972 |  |  |  | 
CN(C)CC(C)(C)COc1cc(C(=O)O)nc2c1c(C1CCC1)nn2-c1ccccc1 [compound 636, 3-cyclobutyl-4-[3-(dimethylamino)-2,2-dimethylpropoxy]-1-phenyl-1H-pyrazolo[3,4-b]pyridine-6-carboxylic acid] | 391.3 | 790 |  |  | 184.1 | 617 |  | 
CN(C)CCC1CCN(c2cc(C(=O)O)nc3c2c(C2CCC2)nn3-c2ccccc2)CC1 [compound 447, 3-cyclobutyl-4-{4-[2-(dimethylamino)ethyl]piperidin-1-yl}-1-phenyl-1H-pyrazolo[3,4-b]pyridine-6-carboxylic acid] | 415.6 | 724 |  |  | 243.3 | 1120 |  | 
CC(C)c1nn(C2CCCCC2)c2nc(C(=O)O)cc(-c3ccc(N(C)C)nc3)c12 [compound 93, 1-cyclohexyl-4-[6-(dimethylamino)pyridin-3-yl]-3-(propan-2-yl)-1H-pyrazolo[3,4-b]pyridine-6-carboxylic acid] | 379.57 | 491 | 175.6 | 680 |  |  |  | 
CC(C)Oc1nn(-c2ccccc2)c2nc(C(=O)O)cc(-c3ccc(N4CCOCC4)cc3)c12 [compound 390, 4-[4-(morpholin-4-yl)phenyl]-1-phenyl-3-[(propan-2-yl)oxy]-1H-pyrazolo[3,4-b]pyridine-6-carboxylic acid] | 362 | 272 | 177.8 | 585 |  |  |  | 
Cc1nn(-c2ccccc2)c2nc(C(=O)O)cc(OCCN3CCS(=O)(=O)CC3)c12 [compound 334, 4-[2-(1,1-dioxo-lλ^6,4-thiazinan-4-yl)ethoxy]-3-methyl-1-phenyl-1H-pyrazolo[3,4-b]pyridine-6-carboxylic acid] | 226.6 | 1900 | 36.645 | 4170 |  |  |  | 
CC(C)c1nn(-c2cccc(N3CC(C)(C)C3)c2)c2nc(C(=O)O)cc(-c3ccc(N4CCOCC4)cc3)c12 [compound 160, 1-[3-(3,3-dimethylazetidin-1-yl)phenyl]-4-[4-(morpholin-4-yl)phenyl]-3-(propan-2-yl)-1H-pyrazolo[3,4-b]pyridine-6-carboxylic acid] | 544.87 | 329 | 318.83 | 447 |  |  |  | 
O=C(O)c1cc(OC2CCCCCC2)c2c(C3CCC3)nn(-c3ccccc3)c2n1 [compound 648, 3-cyclobutyl-4-(cycloheptyloxy)-1-phenyl-1H-pyrazolo[3,4-b]pyridine-6-carboxylic acid] | 296.1 | 203 |  |  | 90.745 | 263 |  | 
Cc1c(C(=O)O)nc2c(c(C(C)C)nn2-c2ccc(F)cc2)c1N1CCC(N2CCOCC2)CC1 [compound 763, 1-(4-fluorophenyl)-5-methyl-4-[4-(morpholin-4-yl)piperidin-1-yl]-3-(propan-2-yl)-1H-pyrazolo[3,4-b]pyridine-6-carboxylic acid] | 276.3 |  | 161.25 |  |  |  | 1670 | 1630
O=C(O)c1cc(N2CCC(CN3CC(OCC(F)F)C3)CC2)c2c(C3CCC3)nn(-c3ccccc3)c2n1 [compound 835, 3-cyclobutyl-4-(4-{[3-(2,2-difluoroethoxy)azetidin-1-yl]methyl}piperidin-1-yl)-1-phenyl-1H-pyrazolo[3,4-b]pyridine-6-carboxylic acid] | 466.9 | 67.6 |  |  | 291.5 | 163 |  | 
Cc1cccc(-n2nc(C(C)C)c3c(N4CCC(CF)CC4)cc(C(=O)O)nc32)c1 [compound 348, 4-[4-(fluoromethyl)piperidin-1-yl]-1-(3-methylphenyl)-3-(propan-2-yl)-1H-pyrazolo[3,4-b]pyridine-6-carboxylic acid] | 410.3 | 370 | 217.2 | 553 |  |  |  | 
CC(C)c1nn(C2CCCCC2)c2nc(C(=O)O)cc(-c3ccc(N4CCOCC4)nc3)c12 [compound 81, 1-cyclohexyl-4-[6-(morpholin-4-yl)pyridin-3-yl]-3-(propan-2-yl)-1H-pyrazolo[3,4-b]pyridine-6-carboxylic acid] | 398.25 | 570 | 193.6 | 744 |  |  |  | 
CN(C[C@@H]1CCN(c2cc(C(=O)O)nc3c2c(C2CCC2)nn3-c2ccccc2)C1)C(=O)OC(C)(C)C [compound 674, 4-[(3R)-3-{[(tert-butoxycarbonyl)(methyl)amino]methyl}pyrrolidin-1-yl]-3-cyclobutyl-1-phenyl-1H-pyrazolo[3,4-b]pyridine-6-carboxylic acid] | 323.85 | 380 |  |  | 158.5 | 521 |  | 
O=C(O)c1cc(N2CC[C@@H](F)[C@H](O)C2)c2c(C3CCC3)nn(-c3ccccc3)c2n1 [compound 465, 3-cyclobutyl-4-[(3R,4R)-4-fluoro-3-hydroxypiperidin-1-yl]-1-phenyl-1H-pyrazolo[3,4-b]pyridine-6-carboxylic acid] | 244.6 | 703 |  |  | 91.04 | 1850 |  | 
CC(c1ccc(-c2cc(C(=O)O)nc3c2c(C2CCC2)nn3C2CCCCC2)cc1)N1CCOCC1 (centres unmarked) [compound 866, 3-cyclobutyl-1-cyclohexyl-4-{4-[1-(morpholin-4-yl)ethyl]phenyl}-1H-pyrazolo[3,4-b]pyridine-6-carboxylic acid] | 298.3 | 151 |  |  | 99.71 | 277 |  | 
COCC1CCN(c2cc(C(=O)O)nc3c2c(C2CCC2)nn3-c2ccccc2)CC1 [compound 405, 3-cyclobutyl-4-[4-(methoxymethyl)piperidin-1-yl]-1-phenyl-1H-pyrazolo[3,4-b]pyridine-6-carboxylic acid] | 512.4 | 226 |  |  | 298.75 | 347 |  | 

From patent publication US9796711B2, “Substituted pyrazolo[3,4-b]pyridin-6-carboxylic acids and method of use” (AbbVie S.àr.l., priority 2015, dated 2017)
